Laboratory results: publication PMC10065799, “High-throughput profiling of sequence recognition by tyrosine kinases and SH2 domains using bacterial peptide display” (eLife, 2023)

Legend:
c-Src kinase domain = c-Src kinase domain (Homo sapiens, UniProt P12931); experiment: pTyr-Var library bacterial peptide display kinase screen (enrichment scores); type: biochemical;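 for c-Src hit?: Hit requires p below 0.05 and at least twofold variant vs reference change plus filters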
Fyn kinase domain = experiment: as above; type: biochemical, human;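 for Fyn hit?: Hit requires p below 0.05 and at least twofold variant vs reference change plus filters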
Hck kinase domain = experiment: as above; type: biochemical, human
c-Abl kinase domain = target: T1, c-Abl kinase domain (Mus musculus, UniProt P00520); experiment: as above; type: biochemical;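 for c-Abl hit?: Hit requires p below 0.05 and at least twofold variant vs reference change plus filters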
T1 sequence (P00520 242-493 limits assumed): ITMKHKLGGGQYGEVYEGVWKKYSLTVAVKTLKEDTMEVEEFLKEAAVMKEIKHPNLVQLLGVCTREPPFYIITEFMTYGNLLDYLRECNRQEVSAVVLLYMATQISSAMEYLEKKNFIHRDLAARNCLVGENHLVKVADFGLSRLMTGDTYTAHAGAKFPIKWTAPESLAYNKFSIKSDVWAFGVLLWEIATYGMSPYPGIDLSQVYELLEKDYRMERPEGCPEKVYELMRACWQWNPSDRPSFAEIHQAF

Jak2 = experiment: as above; type: biochemical, human
AncSZ kinase domain = experiment: as above; type: biochemical;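 for AncSZ hit?: Hit requires p below 0.05 and at least twofold variant vs reference change plus filters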
Fer kinase domain = experiment: as above; type: biochemical, mouse
Fes = experiment: as above; type: biochemical
FGFR1 kinase domain = experiment: as above; type: biochemical, human
FGFR3 kinase domain = experiment: as above; type: biochemical, human
EPHB1 kinase domain = experiment: as above; type: biochemical, human
EPHB2 kinase domain = experiment: as above; type: biochemical, human
MERTK kinase domain = experiment: as above; type: biochemical, human
[1] = tested on: 4G10 Platinum pan-phosphotyrosine antibody; experiment: Phosphorylated pTyr-Var library selection with biotinylated pan-phosphotyrosine antibody; type: binding, mouse; settings: enrichment score, sheet SH2-vs-peptide
c-Src SH2 domain = c-Src SH2 domain (Homo sapiens, UniProt P12931); experiment: pTyr-Var library SH2 domain screen with SH2-dynabeads (enrichment scores); settings: sheet c-Src
SHP2 C-SH2 domain = experiment: as above
Grb2 SH2 domain = experiment: as above
[2] = mean of log2 of enrichment over R1-R4
[3] = pTyr-Var library, enrichment score, replicate 1
[4] = pTyr-Var library, enrichment score, replicate 3
[5] = pTyr-Var library, enrichment score, replicate 4
[6] = variant versus reference peptide
[7] = variant versus reference peptide, significant hit TRUE/FALSE
[8] = mean of log2(variant) minus mean of log2(reference)
[9] = mean of log2 enrichment of variant peptide, n = 5
[10] = pTyr-Var library, variant peptide enrichment, mean of n = 5
[11] = mean of log2 enrichment of variant peptide, n = 4
[12] = pTyr-Var library, variant peptide enrichment, mean of n = 4

ATVQNYLPKCI [A2M_Y817_L815Q]
c-Src mean of log2(enrichment) (c-Src kinase domain; [2]): -1.474 | c-Src enrich. R1 (c-Src kinase domain; [3]): 0.3685 | c-Src enrich. R3 (c-Src kinase domain; [4]): 0.3322 | c-Src enrich. R4 (c-Src kinase domain; [5]): 0.416 | c-Src difference (mean log2 variant - mean log2 reference) (c-Src kinase domain; [6]): -0.08063 | c-Src hit? (c-Src kinase domain; [7]): FALSE | Fyn mean of log2(enrichment) (Fyn kinase domain; [2]): -1.466 | Fyn enrich. R1 (Fyn kinase domain; [3]): 0.4872 | Fyn enrich. R3 (Fyn kinase domain; [4]): 0.3635 | Fyn enrich. R4 (Fyn kinase domain; [5]): 0.2869 | Fyn difference (mean log2 variant - mean log2 reference) (Fyn kinase domain; [6]): -0.247 | Fyn hit? (Fyn kinase domain; [7]): FALSE | Hck mean of log2(enrichment) (Hck kinase domain; mean of log2(variant) / mean of log2(reference), R1-R4): 0.3462 | Hck enrich. R1 (Hck kinase domain; [3]): 0.3734 | Hck enrich. R3 (Hck kinase domain; [4]): 0.3895 | Hck enrich. R4 (Hck kinase domain; [5]): 0.2207 | Hck difference (variant - reference) (Hck kinase domain; [6]): -0.2528 | Hck hit? (Hck kinase domain; [7]): FALSE | c-Abl mean of log2(enrichment) (c-Abl kinase domain; [2]): -0.576 | c-Abl enrich. R1 (c-Abl kinase domain; [3]): 0.4837 | c-Abl enrich. R3 (c-Abl kinase domain; [4]): 0.713 | c-Abl enrich. R4 (c-Abl kinase domain; [5]): 0.6552 | c-Abl hit? (c-Abl kinase domain; [7]): FALSE | Jak2 mean of log2(enrichment) (Jak2; mean of log2 of enrichment over R1-R3): -0.5861 | Jak2 enrich. R1 (Jak2; [3]): 0.5921 | Jak2 enrich. R3 (Jak2; [4]): 0.5314 | Jak2 difference (mean log2 variant - mean log2 reference) (Jak2; [6]): -0.3549 | Jak2 hit? (Jak2; [7]): FALSE | AncSZ mean of log2(enrichment) (AncSZ kinase domain; mean of log2 of enrichment over R1-R5): -0.7038 | AncSZ enrich. R1 (AncSZ kinase domain; [3]): 0.6587 | AncSZ enrich. R3 (AncSZ kinase domain; [4]): 0.7943 | AncSZ enrich. R4 (AncSZ kinase domain; [5]): 0.5045 | AncSZ enrich. R5 (AncSZ kinase domain; pTyr-Var library, enrichment score, replicate 5): 0.4741 | AncSZ difference (mean log2 variant - mean log2 reference) (AncSZ kinase domain; [6]): -0.2377 | AncSZ hit? (AncSZ kinase domain; [7]): FALSE | Fer mean of log2(enrichment) (Fer kinase domain; [2]): -1.311 | Fer enrich. R1 (Fer kinase domain; [3]): 0.4446 | Fer enrich. R3 (Fer kinase domain; [4]): 0.4557 | Fer enrich. R4 (Fer kinase domain; [5]): 0.3278 | Fer difference (mean log2 variant - mean log2 reference) (Fer kinase domain; [6]): -0.03599 | Fer hit? (Fer kinase domain; [7]): FALSE | Fes mean of log2(enrichment) (Fes; mean of log2 of enrichment over R1-R6): -0.2803 | Fes difference (mean log2 variant - mean log2 reference) (Fes; [6]): -0.2401 | difference (FGFR1 kinase domain; [8]): -0.151 | mean of log2(variant) (FGFR1 kinase domain; [9]): -1.149 | var. mean (FGFR1 kinase domain; [10]): 0.4624 | difference (FGFR3 kinase domain; [8]): -0.3951 | mean of log2(variant) (FGFR3 kinase domain; [9]): -1.056 | var. mean (FGFR3 kinase domain; [10]): 0.4887 | difference (EPHB1 kinase domain; [8]): -0.7634 | mean of log2(variant) (EPHB1 kinase domain; [11]): -1.369 | var. mean (EPHB1 kinase domain; [12]): 0.3903 | difference (EPHB2 kinase domain; [8]): -0.2469 | mean of log2(variant) (EPHB2 kinase domain; [11]): -1.144 | var. mean (EPHB2 kinase domain; [12]): 0.4818 | difference (MERTK kinase domain; [8]): -0.01109 | mean of log2(variant) (MERTK kinase domain; [11]): -1.438 | var. mean (MERTK kinase domain; [12]): 0.3721 | 4G10 (mean) [1]: 0.5753 | difference (c-Src SH2 domain; [8]): -0.03544 | mean of log2(variant) (c-Src SH2 domain; mean of log2 enrichment of variant peptide, R1-R3): -1.014 | var. mean (c-Src SH2 domain; variant peptide, mean of R1-R3): 0.4965 | difference (SHP2 C-SH2 domain; SHP2-C SH2, mean of log2(variant) minus mean of log2(reference)): -0.37 | mean of log2(variant) (SHP2 C-SH2 domain; SHP2-C SH2, mean of log2 enrichment of variant, R1-R3): -0.8263 | hit? (SHP2 C-SH2 domain; SHP2-C SH2, variant versus reference significant hit call): FALSE | var. mean (SHP2 C-SH2 domain; variant peptide enrichment score, SHP2-C SH2, mean of R1-R3): 0.5806 | difference (Grb2 SH2 domain; Grb2 SH2, mean of log2(variant) minus mean of log2(reference)): -0.167 | mean of log2(variant) (Grb2 SH2 domain; Grb2 SH2, mean of log2 enrichment of variant, R1-R3): -0.3239 | hit? (Grb2 SH2 domain; Grb2 SH2, variant versus reference significant hit call): FALSE | var. mean (Grb2 SH2 domain; variant peptide enrichment score, Grb2 SH2, mean of R1-R3): 0.8266
